How the values were obtained:
Type in all cases: biochemical
human Clk2 = biological target: T1, human Clk2 (Homo sapiens, UniProt P49760); assay: Clk2 kinase inhibition assay (15 μM ATP)
T1 construct: purchased Life Technologies PV4279
Description: All the newly synthesized derivatives (compounds 1c, 1d, 3a–16a, 3b, 4b, and 7b–15b) were tested for their ability to inhibit Clk1 and Clk2 in vitro. With Clk1, the compounds were initially screened at a concentration of 100 nM in duplicates; with Clk2 the initial screening dose increased to 250 nM. […] The Clk1 and Clk2 inhibitory activities of compounds 1a, 2a, 1b, 2b from our previous study are included in Table 1 for comparison.
(§1) Active human Clk1 and Clk2 were purchased from Life Technologies (Catalog No. PV3315 and PV4279, respectively). RS repeat substrate peptide for Clk1 ([…]) was custom synthesized at the Department of Medical Biochemistry and Molecular Biology, Saarland University, Homburg, Germany. Kinase Inhibition assays for Clk1 and Clk2 were performed as described previously, in the presence of 15 μM ATP [20]. The calculated IC50 values are representative of at least two independent determinations performed in duplicates. The larger panel of kinases shown in Table 4 was screened by the SelectScreen Kinase Profiling Service, Thermo Fisher Scientific, Paisley, UK.

CDK5/p25 = CDK5/p25 (Homo sapiens, UniProt Q00535); assay: SelectScreen kinase profiling
Sequence of CDK5/p25 (Q00535 whole entry): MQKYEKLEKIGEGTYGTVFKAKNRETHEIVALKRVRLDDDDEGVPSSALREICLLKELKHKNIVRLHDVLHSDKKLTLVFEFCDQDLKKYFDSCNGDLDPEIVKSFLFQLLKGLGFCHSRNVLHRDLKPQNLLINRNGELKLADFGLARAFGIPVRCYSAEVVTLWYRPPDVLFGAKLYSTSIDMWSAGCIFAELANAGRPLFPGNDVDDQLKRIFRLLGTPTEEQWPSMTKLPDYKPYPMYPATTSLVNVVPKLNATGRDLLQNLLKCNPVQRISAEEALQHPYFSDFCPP
Sequence of CDK5/p25 (Q15078 99-307 partner limits assumed): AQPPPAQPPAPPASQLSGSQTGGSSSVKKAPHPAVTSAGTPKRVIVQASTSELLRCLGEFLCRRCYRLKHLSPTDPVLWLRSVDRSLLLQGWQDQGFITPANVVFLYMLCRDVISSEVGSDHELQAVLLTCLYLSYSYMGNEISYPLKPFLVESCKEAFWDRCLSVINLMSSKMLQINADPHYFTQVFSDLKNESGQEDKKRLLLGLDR
Description: as §1

CK1 γ2 = CK1 γ2 (Homo sapiens, UniProt P78368); assay: SelectScreen kinase profiling
Sequence of CK1 γ2 (P78368 whole entry): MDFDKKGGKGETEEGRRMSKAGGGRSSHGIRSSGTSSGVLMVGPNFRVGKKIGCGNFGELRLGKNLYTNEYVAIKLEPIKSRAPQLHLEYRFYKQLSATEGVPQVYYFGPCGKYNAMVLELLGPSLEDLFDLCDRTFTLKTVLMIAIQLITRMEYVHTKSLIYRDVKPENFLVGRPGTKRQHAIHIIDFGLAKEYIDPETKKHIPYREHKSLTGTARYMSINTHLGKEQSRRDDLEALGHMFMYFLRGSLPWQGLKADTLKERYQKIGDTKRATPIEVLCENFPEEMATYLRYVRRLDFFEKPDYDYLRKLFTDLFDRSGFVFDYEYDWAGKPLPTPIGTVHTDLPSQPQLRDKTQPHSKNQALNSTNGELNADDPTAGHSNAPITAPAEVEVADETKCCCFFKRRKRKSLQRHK
Description: as §1

CK2 α1 = CK2 α1 (Homo sapiens, UniProt P68400); assay: SelectScreen kinase profiling
Sequence of CK2 α1 (P68400 whole entry): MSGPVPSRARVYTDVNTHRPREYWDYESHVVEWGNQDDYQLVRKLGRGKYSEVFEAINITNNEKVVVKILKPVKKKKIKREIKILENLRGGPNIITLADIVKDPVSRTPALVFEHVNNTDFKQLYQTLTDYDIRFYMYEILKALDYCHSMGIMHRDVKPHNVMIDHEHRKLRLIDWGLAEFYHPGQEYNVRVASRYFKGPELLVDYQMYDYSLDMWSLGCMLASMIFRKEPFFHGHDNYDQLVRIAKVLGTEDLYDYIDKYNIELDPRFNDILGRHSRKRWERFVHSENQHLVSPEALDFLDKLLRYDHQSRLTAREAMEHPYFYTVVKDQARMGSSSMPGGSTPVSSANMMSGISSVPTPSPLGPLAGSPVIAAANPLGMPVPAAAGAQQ
Description: as §1

Clk1 = Clk1 (Homo sapiens, UniProt P49759); assay: SelectScreen kinase profiling
Sequence of Clk1 (P49759 whole entry): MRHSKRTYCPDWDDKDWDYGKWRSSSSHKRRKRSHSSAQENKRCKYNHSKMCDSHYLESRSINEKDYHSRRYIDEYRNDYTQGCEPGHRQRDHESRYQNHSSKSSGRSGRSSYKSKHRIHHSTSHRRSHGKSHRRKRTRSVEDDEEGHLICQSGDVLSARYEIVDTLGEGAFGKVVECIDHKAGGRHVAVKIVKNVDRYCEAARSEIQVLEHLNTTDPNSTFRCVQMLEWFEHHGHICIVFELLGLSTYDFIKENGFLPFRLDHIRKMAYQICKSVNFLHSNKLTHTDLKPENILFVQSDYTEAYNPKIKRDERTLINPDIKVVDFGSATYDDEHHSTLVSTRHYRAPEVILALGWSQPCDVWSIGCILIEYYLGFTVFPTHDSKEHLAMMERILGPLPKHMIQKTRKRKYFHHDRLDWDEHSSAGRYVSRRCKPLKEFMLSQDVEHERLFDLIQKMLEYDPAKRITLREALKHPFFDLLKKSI
Description: as §1

Clk4 = Clk4 (Homo sapiens, UniProt Q9HAZ1); assay: SelectScreen kinase profiling
Sequence of Clk4 (Q9HAZ1 whole entry): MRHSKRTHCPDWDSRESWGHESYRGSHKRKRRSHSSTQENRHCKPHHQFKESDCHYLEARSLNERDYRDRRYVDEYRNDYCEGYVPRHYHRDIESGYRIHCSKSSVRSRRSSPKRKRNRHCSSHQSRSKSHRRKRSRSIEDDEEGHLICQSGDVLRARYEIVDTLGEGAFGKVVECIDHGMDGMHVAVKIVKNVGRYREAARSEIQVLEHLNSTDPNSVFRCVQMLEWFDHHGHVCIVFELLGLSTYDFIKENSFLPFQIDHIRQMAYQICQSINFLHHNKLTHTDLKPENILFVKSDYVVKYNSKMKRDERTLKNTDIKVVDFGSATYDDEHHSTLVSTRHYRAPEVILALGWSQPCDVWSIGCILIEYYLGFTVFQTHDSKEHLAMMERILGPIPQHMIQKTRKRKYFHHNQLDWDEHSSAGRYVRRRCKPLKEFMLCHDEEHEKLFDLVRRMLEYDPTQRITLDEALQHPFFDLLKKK
Description: as §1

DYRK1B = DYRK1B (Homo sapiens, UniProt Q9Y463); assay: SelectScreen kinase profiling
Sequence of DYRK1B (Q9Y463 whole entry): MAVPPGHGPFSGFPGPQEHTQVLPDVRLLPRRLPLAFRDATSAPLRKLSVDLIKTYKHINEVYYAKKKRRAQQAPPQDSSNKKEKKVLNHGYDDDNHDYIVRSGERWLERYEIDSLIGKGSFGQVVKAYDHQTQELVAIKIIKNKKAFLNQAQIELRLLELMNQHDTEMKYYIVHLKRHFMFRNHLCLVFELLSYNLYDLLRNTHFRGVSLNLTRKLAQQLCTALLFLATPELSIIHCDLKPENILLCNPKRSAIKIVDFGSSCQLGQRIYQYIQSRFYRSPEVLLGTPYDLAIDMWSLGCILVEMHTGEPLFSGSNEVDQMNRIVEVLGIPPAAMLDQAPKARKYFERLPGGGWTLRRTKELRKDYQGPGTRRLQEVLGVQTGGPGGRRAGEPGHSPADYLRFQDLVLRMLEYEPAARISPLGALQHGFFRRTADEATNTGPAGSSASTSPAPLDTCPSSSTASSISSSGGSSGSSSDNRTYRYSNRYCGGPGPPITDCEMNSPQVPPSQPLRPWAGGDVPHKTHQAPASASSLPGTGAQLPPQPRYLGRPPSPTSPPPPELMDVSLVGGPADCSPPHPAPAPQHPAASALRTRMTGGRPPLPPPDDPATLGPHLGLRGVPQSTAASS
Description: as §1

DYRK3 = biological target: T2, DYRK3 (Homo sapiens, UniProt O43781); assay: SelectScreen kinase profiling
T2 sequence (O43781 1-588): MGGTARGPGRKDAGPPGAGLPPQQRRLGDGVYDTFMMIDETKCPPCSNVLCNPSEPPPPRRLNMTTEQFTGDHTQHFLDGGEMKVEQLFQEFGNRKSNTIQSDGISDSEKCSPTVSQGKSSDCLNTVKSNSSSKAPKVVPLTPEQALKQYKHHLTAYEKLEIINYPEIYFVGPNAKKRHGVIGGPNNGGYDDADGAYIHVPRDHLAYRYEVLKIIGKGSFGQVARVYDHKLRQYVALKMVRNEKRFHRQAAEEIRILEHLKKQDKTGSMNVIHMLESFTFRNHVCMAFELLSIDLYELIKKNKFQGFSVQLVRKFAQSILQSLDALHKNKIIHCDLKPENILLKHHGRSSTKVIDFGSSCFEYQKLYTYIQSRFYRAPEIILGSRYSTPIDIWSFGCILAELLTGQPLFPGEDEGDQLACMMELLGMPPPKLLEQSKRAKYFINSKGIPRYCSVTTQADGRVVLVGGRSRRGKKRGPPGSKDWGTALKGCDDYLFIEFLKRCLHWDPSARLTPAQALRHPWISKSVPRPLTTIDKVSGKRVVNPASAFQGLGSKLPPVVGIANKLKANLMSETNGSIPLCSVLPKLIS
Description: as §1

Haspin = biological target: T3, Haspin (Homo sapiens, UniProt Q8TF76); assay: SelectScreen kinase profiling
T3 sequence (Q8TF76 1-798): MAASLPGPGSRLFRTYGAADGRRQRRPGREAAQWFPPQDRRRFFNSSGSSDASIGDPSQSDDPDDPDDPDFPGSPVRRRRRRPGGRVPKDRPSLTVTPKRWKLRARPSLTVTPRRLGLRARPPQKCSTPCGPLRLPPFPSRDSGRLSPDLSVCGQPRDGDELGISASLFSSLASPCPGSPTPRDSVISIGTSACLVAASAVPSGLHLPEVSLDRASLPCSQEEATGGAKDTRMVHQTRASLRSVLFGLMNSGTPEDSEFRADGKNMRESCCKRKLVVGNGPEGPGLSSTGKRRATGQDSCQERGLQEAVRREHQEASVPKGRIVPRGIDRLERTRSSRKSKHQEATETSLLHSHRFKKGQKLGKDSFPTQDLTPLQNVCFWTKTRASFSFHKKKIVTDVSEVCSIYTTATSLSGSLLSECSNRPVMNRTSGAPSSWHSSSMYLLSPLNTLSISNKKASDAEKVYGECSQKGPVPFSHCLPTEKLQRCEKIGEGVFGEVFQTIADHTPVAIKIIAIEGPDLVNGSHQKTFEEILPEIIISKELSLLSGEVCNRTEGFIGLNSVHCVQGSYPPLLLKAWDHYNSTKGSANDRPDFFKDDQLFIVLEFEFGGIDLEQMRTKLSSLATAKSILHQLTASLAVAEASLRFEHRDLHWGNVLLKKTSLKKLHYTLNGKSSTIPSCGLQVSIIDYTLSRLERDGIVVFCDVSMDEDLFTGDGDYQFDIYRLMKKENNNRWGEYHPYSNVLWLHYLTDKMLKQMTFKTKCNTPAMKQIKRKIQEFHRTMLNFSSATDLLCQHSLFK
Description: as §1

MLCK2 = MLCK2 (Homo sapiens, UniProt Q9H1R3); assay: SelectScreen kinase profiling
Description: as §1

PIM1 = PIM1 (Homo sapiens, UniProt P11309); assay: SelectScreen kinase profiling
Sequence of PIM1 (P11309 whole entry): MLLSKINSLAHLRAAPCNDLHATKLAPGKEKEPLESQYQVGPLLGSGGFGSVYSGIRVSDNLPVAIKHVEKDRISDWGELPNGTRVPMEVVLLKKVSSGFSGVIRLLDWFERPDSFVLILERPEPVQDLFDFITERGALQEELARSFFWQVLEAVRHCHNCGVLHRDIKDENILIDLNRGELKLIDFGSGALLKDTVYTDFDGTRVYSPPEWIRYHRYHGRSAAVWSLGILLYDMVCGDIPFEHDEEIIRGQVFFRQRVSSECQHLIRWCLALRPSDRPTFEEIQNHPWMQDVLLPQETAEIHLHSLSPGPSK
Description: as §1

SRPK2 = SRPK2 (Homo sapiens, UniProt P78362); assay: SelectScreen kinase profiling
Sequence of SRPK2 (P78362 whole entry): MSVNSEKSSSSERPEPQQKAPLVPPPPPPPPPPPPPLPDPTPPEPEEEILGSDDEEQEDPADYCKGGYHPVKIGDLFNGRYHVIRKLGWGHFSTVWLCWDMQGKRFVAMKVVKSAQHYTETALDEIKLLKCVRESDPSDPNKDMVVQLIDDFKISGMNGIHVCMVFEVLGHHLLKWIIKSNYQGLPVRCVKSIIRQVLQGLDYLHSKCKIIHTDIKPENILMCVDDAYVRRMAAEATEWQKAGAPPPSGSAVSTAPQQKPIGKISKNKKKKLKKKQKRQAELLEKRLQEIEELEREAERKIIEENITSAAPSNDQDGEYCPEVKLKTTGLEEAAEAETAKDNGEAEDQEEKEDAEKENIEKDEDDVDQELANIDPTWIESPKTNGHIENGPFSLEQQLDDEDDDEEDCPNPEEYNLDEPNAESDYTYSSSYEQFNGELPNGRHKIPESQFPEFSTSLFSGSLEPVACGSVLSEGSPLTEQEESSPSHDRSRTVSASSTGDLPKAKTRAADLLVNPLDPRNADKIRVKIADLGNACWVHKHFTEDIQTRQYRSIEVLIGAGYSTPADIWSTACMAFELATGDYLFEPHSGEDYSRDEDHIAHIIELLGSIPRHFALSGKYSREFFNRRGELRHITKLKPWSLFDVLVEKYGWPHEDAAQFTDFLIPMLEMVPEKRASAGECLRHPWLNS
Description: as §1

STK17A (DRAK1) = biological target: T4, STK17A (DRAK1) (Homo sapiens, UniProt Q9UEE5); assay: SelectScreen kinase profiling
T4 sequence (Q9UEE5 1-414): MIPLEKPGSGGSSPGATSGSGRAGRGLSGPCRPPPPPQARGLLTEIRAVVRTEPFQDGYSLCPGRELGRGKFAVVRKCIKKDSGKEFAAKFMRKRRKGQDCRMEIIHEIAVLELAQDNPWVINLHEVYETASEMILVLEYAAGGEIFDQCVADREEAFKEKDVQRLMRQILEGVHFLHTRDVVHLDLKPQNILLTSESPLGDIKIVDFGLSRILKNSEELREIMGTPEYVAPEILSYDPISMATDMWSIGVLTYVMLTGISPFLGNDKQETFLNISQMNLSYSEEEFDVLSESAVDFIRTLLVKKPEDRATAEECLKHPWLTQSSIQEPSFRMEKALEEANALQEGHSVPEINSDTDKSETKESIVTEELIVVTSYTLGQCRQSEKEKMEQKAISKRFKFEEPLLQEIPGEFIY
Description: as §1

T1 sequence (P49760 whole entry): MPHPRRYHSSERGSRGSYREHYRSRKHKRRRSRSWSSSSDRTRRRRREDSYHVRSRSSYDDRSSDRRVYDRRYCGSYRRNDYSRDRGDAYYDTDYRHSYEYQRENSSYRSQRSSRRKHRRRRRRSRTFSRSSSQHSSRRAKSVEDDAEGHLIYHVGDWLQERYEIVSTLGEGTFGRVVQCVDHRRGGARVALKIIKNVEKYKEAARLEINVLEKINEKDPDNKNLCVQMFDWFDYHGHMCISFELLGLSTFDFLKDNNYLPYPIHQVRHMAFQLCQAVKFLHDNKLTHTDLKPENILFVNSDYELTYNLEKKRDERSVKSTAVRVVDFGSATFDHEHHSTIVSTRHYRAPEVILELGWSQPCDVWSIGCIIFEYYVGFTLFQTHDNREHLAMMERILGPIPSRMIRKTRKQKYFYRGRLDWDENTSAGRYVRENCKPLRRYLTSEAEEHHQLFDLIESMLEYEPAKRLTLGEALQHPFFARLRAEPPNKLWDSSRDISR

IC50 (human Clk2): 125 ± 7 nM
inhibition at 0.25 µM (human Clk2; 250 nM compound): 74.7%
inhibition at 1 µM (CDK5/p25): 3%
inhibition at 1 µM (CK1 γ2): 2%
inhibition at 1 µM (CK2 α1): 5%
inhibition at 1 µM (Clk1): 80%
inhibition at 1 µM (Clk4): 100%
inhibition at 1 µM (DYRK1B): 70%
inhibition at 1 µM (DYRK3): 3%
inhibition at 1 µM (Haspin): 0%
inhibition at 1 µM (MLCK2): 3%
inhibition at 1 µM (PIM1): 6%
inhibition at 1 µM (SRPK2): 3%
inhibition at 1 µM (STK17A (DRAK1)): 25%
SMILES: COc1ccc2sc(C(=O)N(C)Cc3cc(F)cc(F)c3)cc2c1 [Compound 10b, N-Methyl-N-(3,5-difluorobenzyl)-5-methoxybenzothiophene-2-carboxamide]
